Holding throughout (format): cell-based
In assay [1] the target is T1, human ERRα-1 (Homo sapiens, UniProt P11474).
T1 construct: expressed in transfected cells; host or cells: HeLa
T1 sequence (P11474 1-423): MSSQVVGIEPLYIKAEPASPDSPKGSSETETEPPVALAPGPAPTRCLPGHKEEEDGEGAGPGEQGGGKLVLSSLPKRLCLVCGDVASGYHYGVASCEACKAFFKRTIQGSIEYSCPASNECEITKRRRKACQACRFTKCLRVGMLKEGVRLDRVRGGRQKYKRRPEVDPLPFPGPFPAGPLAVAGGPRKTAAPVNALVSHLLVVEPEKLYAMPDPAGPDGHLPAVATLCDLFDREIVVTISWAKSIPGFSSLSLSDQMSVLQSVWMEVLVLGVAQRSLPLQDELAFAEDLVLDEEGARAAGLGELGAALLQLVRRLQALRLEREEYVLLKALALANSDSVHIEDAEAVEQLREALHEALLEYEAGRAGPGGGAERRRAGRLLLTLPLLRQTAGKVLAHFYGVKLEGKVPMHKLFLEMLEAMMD
Kind of assay: Transient transfection luciferase assay, full length human ERRα with SF1-SV40-Luc reporter in HeLa cells. As to conditions: for Antagonism of constitutive activity of ERRα (in words) / IC50: HeLa cells; for Antagonism of constitutive activity of ERRα (in words): SF1 binding site reporter, FIG. 1; for IC50: pSG5-ERRα, 24 h, mean ± SD. The method, then: HeLa cells were cultured in MEM Earle's salts medium supplemented with 5% charcoal/dextran-treated fetal bovine serum. Cells were then divided and cultured in 6-well plates until 80% confluence was achieved. The cells were next transfected with 4 μg Lipofectin. An equal amount of total DNA was used in all transfections by including appropriate amounts of the empty vector, pSG5, in addition to specific amounts of pSG5-ERRα and luciferase reporter plasmids (ERRE (ERRα recognizes an ERE half site)-containing reporter and aromatase promoter I.3-containing reporter). Following an overnight incubation, the medium containing Lipofectin and DNA was removed, and the cells cultured in a growth medium containing 5% charcoal/dextran-treated fetal bovine serum with or without ligands. After a 24-hour incubation, the cells was harvested from the plates by scraping, and the luciferase activities in the cell lysates (with the same amounts of protein) was measured according to the manufacturer's instructions (Promega). All experiments were performed in triplicate.
To evaluate the functional significance of the interaction of chalcones with ERRα, we incubated these compounds with HeLa cells which were transiently transfected with human ERRα expression plasmid and a luciferase reporter plasmid containing SF1 binding site. […] In order to confirm the results above, HeLa cells were transiently transfected with GAL4-human ERRα LBD fusion expression plasmid and a luciferase reporter plasmid containing GAL4 binding site. […] Most of the compounds, however, have similar IC50 value, and have a similar potency.
Referring to FIG. 1, HeLa cells were cotransfected with pSG5-ERRα (0.5 μg) and luciferase reporter plasmid containing SF1 binding site and SV40 promoter (0.25 μg). The transfected cells were incubated with Compound No. 1-9 for 24 h. After cells were washed with 1× PBS, luciferase activity was measured. Values represent the mean±SD.

Assay [2] deals with T2, ERRβ (Homo sapiens, UniProt O95718).
T2 construct: expressed in transfected cells; host or cells: HeLa
T2 sequence (O95718 1-433): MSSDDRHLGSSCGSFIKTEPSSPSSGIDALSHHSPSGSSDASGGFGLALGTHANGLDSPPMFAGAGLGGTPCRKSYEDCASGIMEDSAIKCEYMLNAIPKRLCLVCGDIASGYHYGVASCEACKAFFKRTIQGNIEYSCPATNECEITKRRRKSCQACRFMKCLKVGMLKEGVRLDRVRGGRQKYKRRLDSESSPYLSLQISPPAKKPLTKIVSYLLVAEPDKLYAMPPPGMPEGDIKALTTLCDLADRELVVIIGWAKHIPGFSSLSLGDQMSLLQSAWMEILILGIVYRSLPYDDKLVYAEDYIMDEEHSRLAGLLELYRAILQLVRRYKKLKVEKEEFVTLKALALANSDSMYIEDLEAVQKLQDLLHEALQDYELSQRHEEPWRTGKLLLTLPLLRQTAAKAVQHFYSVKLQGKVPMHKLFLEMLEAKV
Kind of assay: Transient transfection luciferase assay with pSG5-ERRb and SF1-SV40 reporter in HeLa cells. As to conditions: for IC50: HeLa cells, 24 h, average of at least two experiments; for Antagonistic properties on ERRb (in words): transient transfection.

Assay [3] concerns promoter I.3 of human aromatase gene (through ERRα). Description: Aromatase promoter I.3 luciferase reporter with pSG5-ERRα in HepG2 cells. As to conditions: 24 h, FIG. 5. The method, then: Aromatase expression is regulated by several promoters, including ERRα modulating promoter I.3. In order to evaluate the effect of chalcones on aromatase activity through ERRα, transient transfection experiments using luciferase reporter plasmid containing a regulatory element S1 and promoter I.3 of human aromatase gene were performed in HepG2 cells. The transfected cells were incubated with chalcones, and luciferase activity was measured.
Referring to FIG. 5, HepG2 cells were cotransfected with pSG5-ERRα (2 μg) and luciferase reporter plasmid containing S1 and promoter I.3 of human aromatase gene (0.5 μg). The transfected cells were incubated with Compound No. 1-9 for 24 h. After cells were washed with 1× PBS, luciferase activity was measured. Values represent the mean±SD.
In general terms: Reporter assays use an easily measured gene product as a stand-in for the process of interest.

The target in assay [4] is T3, aromatase in MCF-7 aro cells (Homo sapiens, UniProt P11511).
T3 construct: expressed in transfected cells
T3 sequence (P11511 1-503): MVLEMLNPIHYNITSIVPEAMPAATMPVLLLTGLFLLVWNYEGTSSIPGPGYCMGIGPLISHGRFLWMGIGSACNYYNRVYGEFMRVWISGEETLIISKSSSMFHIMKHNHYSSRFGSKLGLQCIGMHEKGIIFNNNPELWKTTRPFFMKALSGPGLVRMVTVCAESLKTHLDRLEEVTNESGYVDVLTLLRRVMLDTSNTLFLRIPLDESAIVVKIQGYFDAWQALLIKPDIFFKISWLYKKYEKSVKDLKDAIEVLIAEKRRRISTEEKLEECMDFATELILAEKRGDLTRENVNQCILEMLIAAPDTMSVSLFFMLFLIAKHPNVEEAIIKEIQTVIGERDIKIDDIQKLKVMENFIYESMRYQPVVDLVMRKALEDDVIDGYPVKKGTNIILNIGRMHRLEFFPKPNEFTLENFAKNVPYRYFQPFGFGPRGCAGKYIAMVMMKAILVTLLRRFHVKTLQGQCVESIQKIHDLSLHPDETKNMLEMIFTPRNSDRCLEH
Kind of assay: In-cell aromatase assay ([3H] H2O release) in MCF-7 aro cells. As to conditions: 10 μM, 24 h, FIG. 6B. The method, then: To evaluate the effect of chalcones on aromatase activity, we performed both in vitro assay and in-cell assay with chalcones. […] In addition, MCF-7 aro cells, which are stable aromatase-expressing breast cancer cell line, were incubated with chalcones.
Referring to FIG. 6, the effect of Compound No. 1-9 on aromatase activity was investigated by both in vitro inhibition assay (A) and in-cell aromatase assay (B; MCF-7 aro cells, C; HepG2 cells, D; SK-BR-3 cells). Referring to FIG. 6A, aromatase inhibition study with Compound No. 1-9 was performed on a human placental microsomal aromatase preparation using the assay procedures described in (9). Referring to FIG. 6B, MCF-7 aro cells, which are stable aromatase-expressing cell line generated in our laboratory (10), were incubated with 10 μM of Compound No. 1-9. After 24 h incubation, aromatase activity was measured by [3H] H20 release method. HepG2 cells, as shown in FIG. 6C and SK-BR-3 cells as shown in FIG. 6D were also incubated with Compound No. 1-9 for 24 h, and aromatase activities were measured. Values represent the mean±SD.

The term IC50 denotes the concentration at which inhibition is half-maximal. A higher IC50 goes with lower potency.

Entries after “also recorded” stand apart in the source; their conditions may differ.

Consider `COc1cccc(/C=C/C(=O)c2ccc(O)cc2O)c1OC` [Compound No. 1-9, 2′,4′-Dihydroxy-2,3-dimethoxychalcone], for which, in assay [1], the “Rank of potency as antagonist of ERRα among the chalcones” value is on record as “most potent antagonist among these chalcones; also recorded: more potent antagonist of ERRα among these seven chalcones”, the “Antagonism of constitutive activity of ERRα (in words)” value is “antagonists of ERRα” and the IC50 is 5.7 ± 1.8 µM. Moreover, in assay [2], the IC50 was determined as 3.5 µM and the “Antagonistic properties on ERRb (in words)” value is “showed antagonistic properties”. Besides, the “Effect on promoter I.3 activity” value in assay [3] is on record as “suppressed the promoter I.3 activity in a dose-dependent manner”. Moreover, the “Effect on aromatase activity, in-cell assay, MCF-7 aro cells” value in assay [4] is “did not inhibit aromatase activity”.
`O=C(/C=C/c1ccccc1O)c1ccc(O)cc1O` [Compound No. 7-5, 2,2′,4′-Trihydroxychalcone]: in assay [1], the “Rank of potency as antagonist of ERRα among the chalcones” value is reported as “more potent antagonist of ERRα among these seven chalcones”, the “Antagonism of constitutive activity of ERRα (in words)” value was “antagonists of ERRα” and half-maximal inhibition (IC50) was put at 6.2 ± 1 µM. Also, in assay [2], the IC50 is 6.7 µM and the “Antagonistic properties on ERRb (in words)” value was “showed antagonistic properties”.

The values are drawn from patent publication US9763961B2, “Compositions that modulate the activity of estrogen receptors and estrogen-related receptors and methods for use” (CITY OF HOPE, priority 2005, dated 2017).
